Experimental data published in patent US8937048B2, “Anti-angiogenic compounds” (Covx Technologies Ireland, Limited, priority 2008, dated 2015).
Where a SMILES comes first, the peptide text is derived from it. Bridges are numbered along the chain shown (N, C = ends).

target: T1, recombinant human VEGF165 (Homo sapiens, UniProt P15692); assay: VEGF peptide binding assay (competition ELISA, VEGF165 binding to coated VEGFR2/Fc)
T1 sequence (P15692 27-191 isoform P15692-4): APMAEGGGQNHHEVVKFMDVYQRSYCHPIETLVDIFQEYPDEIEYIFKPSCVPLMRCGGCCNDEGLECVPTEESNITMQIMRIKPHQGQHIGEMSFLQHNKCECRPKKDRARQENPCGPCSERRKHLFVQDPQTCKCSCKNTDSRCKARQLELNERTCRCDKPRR
Method: High-binding half-well 96-well plates (Costar #3690) were coated with recombinant human VEGFR2/Fc (50 ng/well) in 50 μl PBS, and incubated at 4° C. overnight. After washing the plates three times with 1× washing buffer (KPL Cat#50-65-00) and blocking with Superblock (Scytek #AAA500) at room temperature (RT) for 1 hour, VEGF-peptides of the invention were serially diluted (concentrations: 0.128-10,000 nM) in the presence of 25 ng/ml of recombinant human VEGF165 in […] Superblock, and were then added to the 96-well plates and incubated at RT for 1 hour. Peptides of the invention tested in this fashion were all capped at the amino terminus with a C(O)CH3 group and at the carboxyl terminus with a NH2 group. The plates were then washed three times with washing buffer, and a diluted (1:500) biotinylated anti-human VEGF antibody (R&D systems, Cat# BAF293) was added and incubated at RT for 2 hours. After washing the plates, streptavidin HRP conjugate (1:200 in Superblock) (R&D systems, Cat# DY998) was added to detect the bound anti-VEGF antibody, followed by addition of tetramethylbenzidine (TMB) substrate (Pierce, Cat#34021) for color development. The reaction was stopped with 2 M H2SO4. OD450 was measured using SpectraMax (Molecular Device) with a correction wavelength of 540 nm. The data were analyzed using Prism software. OD450 values were plotted as a function of the concentrations of the VEGF peptides. IC50 values, indicative of the potency of the VEGF peptides to inhibit VEGF-VEGFR2 interaction, were obtained using a sigmoid dose-response curve fit in Prism.

Compared with CC[C@H](C)[C@@H]1NC(=O)[C@H](CC(=O)O)NC(=O)[C@@H](NC(=O)[C@H](CC(N)=O)NC(=O)[C@@H]2CCCN2C(=O)[C@H](CCC(=O)O)NC(=O)[C@@H](NC(C)=O)C(C)C)CSSC[C@@H](C(=O)N[C@@H](Cc2ccccc2)C(=O)N[C@@H](CCC(=O)O)C(=O)N[C@@H](CCCNC(=N)N)C(=O)N[C@@H](CC(C)C)C(=O)N[C@@H](Cc2ccc(O)cc2)C(=O)NCC(=O)N[C@@H](CCC(=O)O)C(=O)N[C@@H](Cc2ccccc2)C(N)=O)NC(=O)[C@H](CCC(=O)O)NC(=O)[C@H](Cc2c[nH]c3ccccc23)NC(=O)[C@H](C(C)C)NC(=O)[C@H](Cc2c[nH]c3ccccc23)NC(=O)[C@H](CCSC)NC(=O)[C@H](C(C)C)NC(=O)[C@H](Cc2c[nH]cn2)NC1=O [Compound 70, VEPNCDIHVMWVWECFERLYGEF] (Ac-VEPNCDIHVMWVWECFERLYGEF-NH2; disulfide 5-15 (inferred)), CC[C@H](C)[C@@H]1NC(=O)[C@H](CC(=O)O)NC(=O)[C@@H](NC(=O)[C@H](CC(N)=O)NC(=O)[C@@H]2CCCN2C(=O)[C@H](CCC(=O)O)NC(=O)[C@@H](NC(C)=O)C(C)C)CSSC[C@@H](C(=O)N[C@@H](Cc2ccccc2)C(=O)N[C@@H](CCC(=O)O)C(=O)N[C@@H](CCCNC(=N)N)C(=O)N[C@@H](CC(C)C)C(=O)N[C@@H](Cc2ccc(O)cc2)C(=O)NCC(=O)N[C@@H](CC(C)C)C(=O)N[C@@H](CO)C(N)=O)NC(=O)[C@H](CCC(=O)O)NC(=O)[C@H](Cc2c[nH]c3ccccc23)NC(=O)[C@H](C(C)C)NC(=O)[C@H](Cc2c[nH]c3ccccc23)NC(=O)[C@H](CCSC)NC(=O)[C@H](C(C)C)NC(=O)[C@H](Cc2c[nH]cn2)NC1=O [Compound 71, VEPNCDIHVMWVWECFERLYGLS] (Ac-VEPNCDIHVMWVWECFERLYGLS-NH2; disulfide 5-15 (inferred)) is 1.7-fold lower in IC50: 9.3 nM for the first, 5.4 nM for the second.

Compared with CC[C@H](C)[C@@H]1NC(=O)[C@H](CC(=O)O)NC(=O)[C@@H](NC(=O)[C@H](CC(N)=O)NC(=O)[C@@H]2CCCN2C(=O)[C@H](CCC(=O)O)NC(=O)[C@@H](NC(C)=O)C(C)C)CSSC[C@@H](C(=O)N[C@@H](Cc2ccccc2)C(=O)N[C@@H](CCC(=O)O)C(=O)N[C@@H](CCCNC(=N)N)C(=O)N[C@@H](CC(C)C)C(=O)N[C@@H](CC(C)C)C(=O)N[C@@H](CCCCN)C(N)=O)NC(=O)[C@H](CCC(=O)O)NC(=O)[C@H](Cc2c[nH]c3ccccc23)NC(=O)[C@H](C(C)C)NC(=O)[C@H](Cc2c[nH]c3ccccc23)NC(=O)[C@H](CCSC)NC(=O)[C@H](C(C)C)NC(=O)[C@H](Cc2c[nH]cn2)NC1=O [Compound 67, VEPNCDIHVMWVWECFERLLK] (Ac-VEPNCDIHVMWVWECFERLLK-NH2; disulfide 5-15 (inferred)), CC[C@H](C)[C@@H]1NC(=O)[C@H](CC(=O)O)NC(=O)[C@@H](NC(=O)[C@H](CC(N)=O)NC(=O)[C@@H]2CCCN2C(=O)[C@H](CCC(=O)O)NC(=O)[C@@H](NC(C)=O)C(C)C)CSSC[C@@H](C(=O)N[C@@H](Cc2ccccc2)C(=O)N[C@@H](CCC(=O)O)C(=O)N[C@@H](CCCNC(=N)N)C(=O)N[C@@H](CC(C)C)C(=O)N[C@H](C(=O)N[C@@H](CCCCN)C(N)=O)C(C)C)NC(=O)[C@H](CCC(=O)O)NC(=O)[C@H](Cc2c[nH]c3ccccc23)NC(=O)[C@H](C(C)C)NC(=O)[C@H](Cc2c[nH]c3ccccc23)NC(=O)[C@H](CCSC)NC(=O)[C@H](C(C)C)NC(=O)[C@H](Cc2c[nH]cn2)NC1=O [Compound 48, VEPNCDIHVMWVWECFERLVK] (Ac-VEPNCDIHVMWVWECFERLVK-NH2; disulfide 5-15 (inferred)) is 4.2-fold higher in IC50: 10.1 nM for the first, 42.4 nM for the second. The first is the more potent here.

Compared with CC[C@H](C)[C@@H]1NC(=O)[C@H](CC(=O)O)NC(=O)[C@@H](NC(=O)[C@H](CC(N)=O)NC(=O)[C@@H]2CCCN2C(=O)[C@H](CCC(=O)O)NC(=O)[C@@H](NC(C)=O)C(C)C)CSSC[C@@H](C(=O)N[C@@H](Cc2ccccc2)C(=O)N[C@@H](CCC(=O)O)C(=O)N[C@@H](CCCNC(=N)N)C(=O)N[C@@H](CC(C)C)C(=O)N[C@@H](CCSC)C(=O)N[C@@H](CCCNC(=N)N)C(=O)N[C@@H](CC(C)C)C(=O)N[C@H](C(N)=O)[C@@H](C)O)NC(=O)[C@H](CCC(=O)O)NC(=O)[C@H](Cc2c[nH]c3ccccc23)NC(=O)[C@H](C(C)C)NC(=O)[C@H](Cc2c[nH]c3ccccc23)NC(=O)[C@H](CCSC)NC(=O)[C@H](C(C)C)NC(=O)[C@H](Cc2c[nH]cn2)NC1=O [Compound 46, VEPNCDIHVMWVWECFERLMRLT] (Ac-VEPNCDIHVMWVWECFERLMRLT-NH2; disulfide 5-15 (inferred)), CC[C@H](C)[C@@H]1NC(=O)[C@H](CC(=O)O)NC(=O)[C@@H](NC(=O)[C@H](CC(N)=O)NC(=O)[C@@H]2CCCN2C(=O)[C@H](CCC(=O)O)NC(=O)[C@@H](NC(C)=O)C(C)C)CSSC[C@@H](C(=O)N[C@@H](Cc2ccccc2)C(=O)N[C@@H](CCC(=O)O)C(=O)N[C@@H](CCCNC(=N)N)C(=O)N[C@@H](CC(C)C)C(=O)N[C@@H](CCSC)C(=O)N[C@@H](CCCNC(=N)N)C(=O)N[C@@H](CCC(=O)O)C(=O)N[C@@H](CC(C)C)C(N)=O)NC(=O)[C@H](CCC(=O)O)NC(=O)[C@H](Cc2c[nH]c3ccccc23)NC(=O)[C@H](C(C)C)NC(=O)[C@H](Cc2c[nH]c3ccccc23)NC(=O)[C@H](CCSC)NC(=O)[C@H](C(C)C)NC(=O)[C@H](Cc2c[nH]cn2)NC1=O [Compound 63, VEPNCDIHVMWVWECFERLMREL] (Ac-VEPNCDIHVMWVWECFERLMREL-NH2; disulfide 5-15 (inferred)) is 1.8-fold lower in IC50: 44.1 nM for the first, 24 nM for the second. The second is the more potent here.

Compared with CC[C@H](C)[C@@H]1NC(=O)[C@H](CC(=O)O)NC(=O)[C@@H](NC(=O)[C@H](CC(N)=O)NC(=O)[C@@H]2CCCN2C(=O)[C@H](CCC(=O)O)NC(=O)[C@@H](NC(C)=O)C(C)C)CSSC[C@@H](C(=O)N[C@@H](Cc2ccccc2)C(=O)N[C@@H](CCC(=O)O)C(=O)N[C@@H](CCCNC(=N)N)C(=O)N[C@@H](CC(C)C)C(=O)N[C@@H](CCSC)C(=O)N[C@@H](CCCCN)C(=O)N[C@@H](CCC(=O)O)C(=O)N[C@@H](CC(C)C)C(N)=O)NC(=O)[C@H](CCC(=O)O)NC(=O)[C@H](Cc2c[nH]c3ccccc23)NC(=O)[C@H](C(C)C)NC(=O)[C@H](Cc2c[nH]c3ccccc23)NC(=O)[C@H](CCSC)NC(=O)[C@H](C(C)C)NC(=O)[C@H](Cc2c[nH]cn2)NC1=O [Compound 65, VEPNCDIHVMWVWECFERLMKEL] (Ac-VEPNCDIHVMWVWECFERLMKEL-NH2; disulfide 5-15 (inferred)), CC[C@H](C)[C@@H]1NC(=O)[C@H](CC(=O)O)NC(=O)[C@@H](NC(=O)[C@H](CC(N)=O)NC(=O)[C@@H]2CCCN2C(=O)[C@H](CCC(=O)O)NC(=O)[C@@H](NC(C)=O)C(C)C)CSSC[C@@H](C(=O)N[C@@H](Cc2ccccc2)C(=O)N[C@@H](CCC(=O)O)C(=O)N[C@@H](CCCNC(=N)N)C(=O)N[C@@H](CC(C)C)C(=O)N[C@@H](Cc2ccc(O)cc2)C(=O)N[C@@H](CCCNC(=N)N)C(=O)N[C@@H](CCC(=O)O)C(=O)N[C@@H](CC(C)C)C(N)=O)NC(=O)[C@H](CCC(=O)O)NC(=O)[C@H](Cc2c[nH]c3ccccc23)NC(=O)[C@H](C(C)C)NC(=O)[C@H](Cc2c[nH]c3ccccc23)NC(=O)[C@H](CCSC)NC(=O)[C@H](C(C)C)NC(=O)[C@H](Cc2c[nH]cn2)NC1=O [Compound 39, VEPNCDIHVMWVWECFERLYREL] (Ac-VEPNCDIHVMWVWECFERLYREL-NH2; disulfide 5-15 (inferred)) is 3.9-fold higher in IC50: 18 nM for the first, 70 nM for the second.

CC[C@H](C)[C@@H]1NC(=O)[C@H](CC(=O)O)NC(=O)[C@@H](NC(=O)[C@H](CC(N)=O)NC(=O)[C@@H]2CCCN2C(=O)[C@H](CCC(=O)O)NC(=O)[C@@H](NC(C)=O)C(C)C)CSSC[C@@H](C(=O)N[C@@H](Cc2ccccc2)C(=O)N[C@@H](CCC(=O)O)C(=O)N[C@@H](CCCNC(=N)N)C(=O)N[C@@H](CC(C)C)C(=O)N[C@@H](Cc2ccc(O)cc2)C(=O)NCC(=O)NCC(=O)N[C@@H](Cc2c[nH]c3ccccc23)C(N)=O)NC(=O)[C@H](CCC(=O)O)NC(=O)[C@H](Cc2c[nH]c3ccccc23)NC(=O)[C@H](C(C)C)NC(=O)[C@H](Cc2c[nH]c3ccccc23)NC(=O)[C@H](CCSC)NC(=O)[C@H](C(C)C)NC(=O)[C@H](Cc2c[nH]cn2)NC1=O [Compound 35, VEPNCDIHVMWVWECFERLYGGW] (Ac-VEPNCDIHVMWVWECFERLYGGW-NH2; disulfide 5-15 (inferred)) gave an IC50 of 325 nM.
